Data as given in patent US20220079993A1, “NON-NATURALLY OCCURRING THERMOGENIC ADIPOCYTES, METHODS OF MAKING, AND METHODS OF USE THEREOF” (University of Georgia Research Foundation, Inc., priority 2019, published 2022).
Where a name gives a salt, the structure may show the parent alone. Read-outs that look alike come from different tables or passages of the source.

Test system: beige adipocytes
Test: Lipolysis validation assays of primary hits at three concentrations
Format: cell-based, human
Set-up: % of Control (1) / % of Control (2) / % of Control (3) / % of Control (4): unit of the concentration uncertain
Conditions: for activity at 2.2 µM / activity at 6.7 µM / activity at 20 µM / activity at 2200 µM: Homo sapiens, Adipocyte, 24 h; for activity at 2.2 µM: Conc. 2.2 µM; for activity at 6.7 µM: Conc. 6.7 µM; for activity at 20 µM: Conc. 20 µM; for activity at 2200 µM: Conc. 2.2 mM
Description: ADSCs were seeded at 5000 cell/cm^2 in 12-well plates, grown for 5 days and then induced to differentiate into GC for 20 days. Prior to the assay, cells were washed in DPBS twice and then incubated with DMEM with 2% fatty-acid free BSA (Santa Crus, sc-500949) and Triascin C (5 μM). Cells were treated with forskolin (20 μM) for indicated time periods and supernatant samples were collected. Lipolysis assay was performed with free glycerol reagent (Sigma, F6428-40ML), according to manufacturer instructions.
Lipolysis assays were performed after 24 hours of drug treatment by measuring free glycerol released in the 384-well format, using the procedure described above. Absorbance for each compound was normalized to untreated control samples for each plate and calculated as a percent of the control. Cut-offs for “activating” and “inhibiting” compounds were set at 2-fold. Validation assays were performed for select compounds at a range of concentration doses.
Next, lipolysis assays were performed for all 111 compounds identified in the primary screen at three different concentrations, of which twenty-four were selected for further analysis based on their newness and/or reproducibility.

Structure (SMILES)	activity at 2.2 µM (read-out: % of Control (2)) [%]	activity at 2.2 µM (read-out: % of Control (4)) [%]	activity at 6.7 µM (read-out: % of Control (1)) [%]	activity at 6.7 µM (read-out: % of Control (2)) [%]	activity at 6.7 µM (read-out: % of Control (3)) [%]	activity at 6.7 µM (read-out: % of Control (4)) [%]	activity at 20 µM (read-out: % of Control (1)) [%]	activity at 20 µM (read-out: % of Control (2)) [%]	activity at 20 µM (read-out: % of Control (3)) [%]	activity at 20 µM (read-out: % of Control (4)) [%]	activity at 2200 µM (read-out: % of Control (1)) [%]	activity at 2200 µM (read-out: % of Control (3)) [%]	also measured
CNC[C@H](O)c1cccc(O)c1 [Phenylephrine HCl]	253	240	271	266	240	232	353	373	248	232	338	221	–
CC(C)C[C@H](NC(=O)CNC(=O)c1cc(Cl)ccc1Cl)B1OC(=O)C(CC(=O)O)(CC(=O)O)O1 [MLN9708]	139	114	198	228	176	115	138	173	117	90	251	205	–
CCOC(=O)C1=C(C)NC(C)=C(C(=O)OC)C1c1cccc(Cl)c1Cl (stereo not drawn) [Felodipine]	220	206	284	241	228	256	291	274	244	245	243	203	–
C[n+]1cc2c3c(ccc2c2ccc4cc5c(cc4c21)OCO5)OCO3 [Sanguinarine]	142	121	218	198	128	101	185	155	133	160	179	71.3	–
C[C@@H]1CC(=O)NN=C1c1ccc(NN=C(C#N)C#N)cc1 [Levosimendan]	163	236	197	189	211	246	261	280	247	340	215	189	–
CO[C@H]1CC[C@@H](O[C@H]2C[C@H]([C@]3(C)CC[C@]4(C[C@H](O)[C@@H](C)[C@@H]([C@@H](C)/C=C(\C)C(=O)[C@H](C)C[C@H](C)C(=O)O)O4)O3)O[C@]3(O[C@@H]([C@H]4O[C@@](O)(CO)[C@H](C)C[C@@H]4C)C[C@@H]3C)[C@@H]2C)O[C@@H]1C [Nanchangmycin]	–	–	–	–	–	–	–	–	–	–	–	–	% of Control (1) (Conc. 2.2 (unit uncertain)): 259.29 % of Control; % of Control (2) (Conc. 2.2 (unit uncertain)): 209.65 % of Control; % of Control (3) (Conc. 2.2 (unit uncertain)): 192.42 % of Control; % of Control (4) (Conc. 2.2 (unit uncertain)): 124.48 % of Control; % of Control (1) (Conc. 6.7 (unit uncertain)): 196.07 % of Control; % of Control (2) (Conc. 6.7 (unit uncertain)): 104.94 % of Control; % of Control (3) (Conc. 6.7 (unit uncertain)): 147.69 % of Control; % of Control (4) (Conc. 6.7 (unit uncertain)): 106.09 % of Control; % of Control (1) (Conc. 20 (unit uncertain)): 147.14 % of Control; % of Control (2) (Conc. 20 (unit uncertain)): 168.94 % of Control; % of Control (3) (Conc. 20 (unit uncertain)): 98.9 % of Control; % of Control (4) (Conc. 20 (unit uncertain)): 168.85 % of Control
CC(Oc1c(Cl)cccc1Cl)C1=NCCN1 (stereo not drawn) [Lofexidine HCl]	115	91.4	122	176	180	149	205	200	148	191	104	119	–
CC(=O)Nc1ccccc1 [Acetanilide]	377	119	252	332	246	249	298	295	253	258	317	251	–
